# In publication PMC5908160, “Inhibition of sperm motility in male macaques with EP055, a potential non-hormonal male contraceptive” (PLoS ONE, 2018):
# Columns and labels:
# EPPIN = EPPIN (Homo sapiens, UniProt O95925); experiment: AlphaScreen assay of a-EAb binding to EPPIN; conditions: n = 4, read-out: IC50, inhibition of a-EAb binding to EPPIN
# Procedure: The AlphaScreen® assay was carried as previously described. Briefly, recombinant histidine-tagged recombinant EPPIN was pre-incubated with Ni-NTA chelate donor beads (catalog number AS101, Perkin Elmer, Waltham MA) and anti-Eppin 007 antibody was pre-incubated with Protein A acceptor beads (catalog number 6760136, Perkin Elmer, Waltham MA) for 30 minutes. Equal volumes of donor and acceptor bead mixtures were pipetted into white opaque 384-well microplates (OptiPlate-384; PerkinElmer, Waltham, MA) in a final volume of 30 μL. Plates were covered with top seal and transferred to a Synergy 2 Multiplatform automated plate reader (Biotek, Winooski, VT). After shaking for 2 min, plates were read with an excitation 680/30 filter, an emission 570/100 filter and data acquired using Gen5 software (Biotek). Each set of samples was pipetted in 4 replicates. […] A specific signal for each time point was calculated by subtracting the background signal (obtained in the absence of EPPIN) from its respective total signal. […] Non-specific interactions of compound with assay components were measured at the same time with the IgG detection kit ([…] biotinylated rabbit IgG) to generate the bead interaction: 10 μg/ml donor and acceptor beads. […]
# [1] = EP012 plasma half-life in rats; format: in vivo; conditions: rat, iv, preliminary testing, 1 mg/kg i.v. bolus
# Procedure: Preliminary half-life measurements for EP012 were carried out by Calvert Laboratories ([…]
# The intravenous formulation was prepared by mixing an appropriate amount of EP012 (1 mg/kg) with an appropriate volume of intravenous vehicle (DMSO). The pH of the intravenous formulations was confirmed to be 7.4-7.6 and instilled through a syringe filter for sterilization prior to dosing. Three Sprague Dawley male rats (8-14 weeks; 300 to 325 g) were surgically implanted with a catheter in a jugular vein using polyurethane tubing and glycerol or dextrose solution as the lumen lock solution. The intravenous formulation was administered as a bolus injection into a lateral tail vein.
# Serial blood samples (~0.30 mL each), were obtained from each animal via the jugular vein catheter at the following timepoints post-dose: 0.083, 0.167, 0.333, 0.5, 1, 2, 4, 8, 12, and 24 hours. Plasma (~125 µL per sample) was harvested following centrifugation of the chilled blood samples at 3000 RPM for 10 minutes at +4 °C. Derived plasma was transferred into prelabeled plastic vials and stored frozen at approximately -70 °C or lower until processing.
# Sample preparation and LC-MS/MS analysis were done by OpAns LLC (Durham, NC). Plasma samples (both rat and macaque) were thawed at room temperature and processed by adding 160 µL of methanol (including 10 µL internal standard) to 25 µL of the sample. […]
# human sperm = experiment: CASA (Computer Assisted Sperm Analysis) assay of human sperm motility; format: cell-based; conditions: n = 4 donors, read-out: average relative motility index (RMI) IC50
# Procedure: Human semen samples were obtained from the Department of Obstetrics and Gynecology, University of North Carolina Memorial Hospital, Chapel Hill, NC. […] Semen samples were allowed to liquefy for 30 minutes and subjected to standard semen analysis to determine acceptability before freezing. All samples were stored in liquid nitrogen, and de-identified by the Department of Obstetrics and Gynecology, University of North Carolina Memorial Hospital, Chapel Hill, NC before further processing. A density gradient (Isolate catalog number 99264, Irving Scientific, Irving CA, or SpermCare catalog number 2221 and 2222, InvitroCare Inc., Frederick MD) was used to prepare spermatozoa for further analysis. At least 3 independent experiments were done per assay, each using a single donor.
# Computer Assisted Sperm Analysis (CASA) was conducted as previously described. Briefly sperm were washed after the density gradient with EP buffer-0.4% BSA and resuspended in modified M16 for compound treatments. Sperm were diluted to 5 x 10^6/mL in 12x75 mm glass tubes with the appropriate treatment and incubated at 37°C in 5% CO2. […] The relative mobility index (RMI) is a measure of the effect of compound on sperm and is calculated as the VSL x %normal motility and normalized to the appropriate DMSO control.
# EPPIN, sequence (O95925 22-133): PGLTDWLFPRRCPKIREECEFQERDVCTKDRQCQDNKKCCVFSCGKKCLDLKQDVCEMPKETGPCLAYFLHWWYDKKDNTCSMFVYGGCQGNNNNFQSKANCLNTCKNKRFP
structure (smiles),measurement,setting,value
COC(=O)NNc1nc(Nc2ccc(NC(=O)OC)c(O)c2)nc(SCC(=O)O)n1 [EP012],IC50,EPPIN,55.4 µM
same,half-life,[1],< 4 min
same,IC50,human sperm,33.4 µM
